ChEMBL document CHEMBL4229439, “Design, synthesis and antimycobacterial activity of 3,5-dinitrobenzamide derivatives containing fused ring moieties” (2018)
≈ marks a conversion by molar mass, not a printed value. Calls of active or inactive are those of the source. The calls are words filed in the database; no cut-off is given here.

test system: Mycobacterium tuberculosis; assay: Antimycobacterial activity against Mycobacterium tuberculosis H37Rv ATCC 27294 after 7 days by Alamar blue assay; type: functional; details: H37Rv ATCC 27294, 168 h

Compound | MIC
CC(C)CC(=O)N1CCc2cc(CNC(=O)c3cc([N+](=O)[O-])cc([N+](=O)[O-])c3)ccc2C1 | 0.204 µg/mL (≈ 0.463 µM)
CC(C)(C)C(=O)N1Cc2ccc(CNC(=O)c3cc([N+](=O)[O-])cc([N+](=O)[O-])c3)cc2C1 | 0.489 µg/mL (≈ 1.15 µM)
O=C(NCc1ccc2c(c1)CCN(Cc1ccc(OC(F)(F)F)cc1)C2)c1cc([N+](=O)[O-])cc([N+](=O)[O-])c1 | 0.241 µg/mL (≈ 0.454 µM)
CC(C)(C)OC(=O)CN1CCc2cc(CNC(=O)c3cc([N+](=O)[O-])cc([N+](=O)[O-])c3)ccc2C1 | 3.81 µg/mL (≈ 8.1 µM)
COc1ccc(C(=O)N2Cc3ccc(CNC(=O)c4cc([N+](=O)[O-])cc([N+](=O)[O-])c4)cc3C2)cc1 | > 32 µg/mL
O=C(NCc1ccc2c(c1)CN(C(=O)c1ccccc1)C2)c1cc([N+](=O)[O-])cc([N+](=O)[O-])c1 | 1.45 µg/mL (≈ 3.25 µM)
O=C(NCc1ccc2c(c1)CCN(C(=O)c1ccc(F)cc1)C2)c1cc([N+](=O)[O-])cc([N+](=O)[O-])c1 | 0.424 µg/mL (≈ 0.886 µM)
CC(=O)CN1CCc2cc(CNC(=O)c3cc([N+](=O)[O-])cc([N+](=O)[O-])c3)ccc2C1 | 3.12 µg/mL (≈ 7.56 µM)
O=C(NCc1ccc2c(c1)CCN(c1ccc(C(F)(F)F)cc1)C2)c1cc([N+](=O)[O-])cc([N+](=O)[O-])c1 | 0.079 µg/mL (≈ 0.158 µM)
O=C(NCc1ccc2c(c1)CN(Cc1ccc(OC(F)(F)F)cc1)C2)c1cc([N+](=O)[O-])cc([N+](=O)[O-])c1 | 0.016 µg/mL (≈ 0.031 µM)
O=C(CN1CCc2cc(CNC(=O)c3cc([N+](=O)[O-])cc([N+](=O)[O-])c3)ccc2C1)NCc1ccccc1 | 3.96 µg/mL (≈ 7.86 µM)
CC(C)(C)C(=O)N1CCc2cc(CNC(=O)c3cc([N+](=O)[O-])cc([N+](=O)[O-])c3)ccc2C1 | 0.447 µg/mL (≈ 1.01 µM)
O=C(NCc1ccc2c(c1)CN(c1ccc(C(F)(F)F)cc1)C2)c1cc([N+](=O)[O-])cc([N+](=O)[O-])c1 | 0.098 µg/mL (≈ 0.201 µM)
O=C(NCc1ccc2c(c1)CCN(c1ccc(F)cc1)C2)c1cc([N+](=O)[O-])cc([N+](=O)[O-])c1 | 0.076 µg/mL (≈ 0.169 µM)
CN1CCc2cc(CNC(=O)c3cc([N+](=O)[O-])cc([N+](=O)[O-])c3)ccc2C1 | 11.4 µg/mL (≈ 30.9 µM)
O=C(NCc1ccc2c(c1)CN(C(=O)C1CCCCC1)C2)c1cc([N+](=O)[O-])cc([N+](=O)[O-])c1 | 0.808 µg/mL (≈ 1.79 µM)
COc1ccc(C(=O)N2CCc3cc(CNC(=O)c4cc([N+](=O)[O-])cc([N+](=O)[O-])c4)ccc3C2)cc1 | 1.15 µg/mL (≈ 2.34 µM)
O=C(NCc1ccc2c(c1)CCN(Cc1ccc(Cl)cc1)C2)c1cc([N+](=O)[O-])cc([N+](=O)[O-])c1 | 0.056 µg/mL (≈ 0.116 µM)
O=C(NCc1ccc2c(c1)CCN(CC1CCCCC1)C2)c1cc([N+](=O)[O-])cc([N+](=O)[O-])c1 | 0.226 µg/mL (≈ 0.499 µM)
CC(=O)CCN1CCc2cc(CNC(=O)c3cc([N+](=O)[O-])cc([N+](=O)[O-])c3)ccc2C1 | 22.7 µg/mL (≈ 53.3 µM)
O=C(NCc1ccc2c(c1)CN(Cc1ccc(C(F)(F)F)cc1)C2)c1cc([N+](=O)[O-])cc([N+](=O)[O-])c1 | < 0.016 µg/mL

Compound | MIC
COc1ccc(CN2Cc3ccc(CNC(=O)c4cc([N+](=O)[O-])cc([N+](=O)[O-])c4)cc3C2)cc1 | 0.03 µg/mL (≈ 0.0649 µM)
CCC(C)C(=O)N1CCc2cc(CNC(=O)c3cc([N+](=O)[O-])cc([N+](=O)[O-])c3)ccc2C1 (stereo not drawn) | 0.468 µg/mL (≈ 1.06 µM)
CCN(CC)C(=O)CN1CCc2cc(CNC(=O)c3cc([N+](=O)[O-])cc([N+](=O)[O-])c3)ccc2C1 | 15.3 µg/mL (≈ 32.7 µM)
O=C(NCc1ccc2c(c1)CCN(Cc1ccc(Br)cc1)C2)c1cc([N+](=O)[O-])cc([N+](=O)[O-])c1 | 0.108 µg/mL (≈ 0.206 µM)
O=c1nc(N2CCN(CC3CCCCC3)CC2)sc2c([N+](=O)[O-])cc(C(F)(F)F)cc12 [MACOZINONE] | < 0.016 µg/mL
O=C(NCc1ccc2c(c1)CN(C(=O)c1ccc(OC(F)(F)F)cc1)C2)c1cc([N+](=O)[O-])cc([N+](=O)[O-])c1 | 0.309 µg/mL (≈ 0.583 µM)
O=C(NCc1ccc2c(c1)CNC2)c1cc([N+](=O)[O-])cc([N+](=O)[O-])c1 | < 0.016 µg/mL
CO[C@H]1/C=C/O[C@@]2(C)Oc3c(C)c(O)c4c(O)c(c(/C=N/N5CCN(C)CC5)c(O)c4c3C2=O)NC(=O)/C(C)=C\C=C\[C@H](C)[C@H](O)[C@@H](C)[C@@H](O)[C@@H](C)[C@H](OC(C)=O)[C@@H]1C [RIFAMPIN] | 0.095 µg/mL (≈ 0.115 µM)
O=C(NCc1ccc2c(c1)CCN(Cc1cc(C(F)(F)F)cc(C(F)(F)F)c1)C2)c1cc([N+](=O)[O-])cc([N+](=O)[O-])c1 | 1.9 µg/mL (≈ 3.26 µM)
CCOC(=O)CN1CCc2cc(CNC(=O)c3cc([N+](=O)[O-])cc([N+](=O)[O-])c3)ccc2C1 | 0.243 µg/mL (≈ 0.549 µM)
O=C(NCc1ccc2c(c1)CCN(Cc1ccc(F)cc1)C2)c1cc([N+](=O)[O-])cc([N+](=O)[O-])c1 | 0.122 µg/mL (≈ 0.263 µM)
O=C(NCc1ccc2c(c1)CCN(c1ccc(OC(F)(F)F)cc1)C2)c1cc([N+](=O)[O-])cc([N+](=O)[O-])c1 | 0.241 µg/mL (≈ 0.467 µM)
O=C(NCc1ccc2c(c1)CN(Cc1ccc(F)cc1)C2)c1cc([N+](=O)[O-])cc([N+](=O)[O-])c1 | 0.028 µg/mL (≈ 0.0622 µM)
O=C(NCc1ccc2c(c1)CCN(C(=O)C1CCCCC1)C2)c1cc([N+](=O)[O-])cc([N+](=O)[O-])c1 | 0.5 µg/mL (≈ 1.07 µM)
O=C(NCc1ccc2c(c1)CN(C(=O)c1ccc(F)cc1)C2)c1cc([N+](=O)[O-])cc([N+](=O)[O-])c1 | 0.926 µg/mL (≈ 1.99 µM)
NNC(=O)c1ccncc1 [ISONIAZID] | 0.039 µg/mL (≈ 0.284 µM)
O=C(NCc1ccc2c(c1)CCN(Cc1cccc(F)c1)C2)c1cc([N+](=O)[O-])cc([N+](=O)[O-])c1 | 0.056 µg/mL (≈ 0.121 µM)
O=C(NCc1ccc2c(c1)CN(c1ccc(F)cc1)C2)c1cc([N+](=O)[O-])cc([N+](=O)[O-])c1 | 0.026 µg/mL (≈ 0.0596 µM)
O=C(NCc1ccc2c(c1)CCN(C(=O)CC1CCCCC1)C2)c1cc([N+](=O)[O-])cc([N+](=O)[O-])c1 | 0.978 µg/mL (≈ 2.04 µM)
O=C(NCc1ccc2c(c1)CCN(C(=O)c1ccccc1)C2)c1cc([N+](=O)[O-])cc([N+](=O)[O-])c1 | 0.974 µg/mL (≈ 2.12 µM)
O=C(CN1CCc2cc(CNC(=O)c3cc([N+](=O)[O-])cc([N+](=O)[O-])c3)ccc2C1)OCc1ccccc1 | 7.55 µg/mL (≈ 15 µM)

test system: Mycobacterium tuberculosis; assay: Antimycobacterial activity against Mycobacterium tuberculosis H37Rv ATCC 27294 up to 10 ug/ml after 7 days by Alamar blue assay; type: functional, organism-based; details: not given

Compound | Activity
O=C(NCc1ccc2c(c1)CNC2)c1cc([N+](=O)[O-])cc([N+](=O)[O-])c1 | inactive
